Converted amounts (≈) assume the structure as drawn.
Legend:
[1] = cited from earlier work; for Humidity stability / form conversion: as disclosed in WO2020010216A1 (FIG. 1, Table 17)
[2] = Compressibility (tablet hardness / tensile strength); type: physicochemical; details: 60 mg, φ6 mm round tooling, 5 KN; for Hardness: 24 h recovery
Experimental: An ENERPAC manual tablet press was used for compression. 60 mg of Form CSII and prior art Form 1B were weighed and added into the dies of a φ6 mm round tooling, compressed at 5 KN manually, then stored at room temperature for 24 h until elastic recovery is complete, hardness (H) was tested with an intelligent tablet hardness tester. Diameter (D) and thickness (L) were tested with a caliper. Tensile strength of the powder was calculated with the following formula: T=2H/TTDL. Under a certain force, the greater the tensile strength, the better the compressibility.

[3] = Flowability (compressibility index, USP <1174>); type: physicochemical; details: for Compressibility index: c=(pf−p0)/pf; for Flowability: criteria of USP <1174> Powder Flow
Experimental: Compressibility index is usually utilized to evaluate the flowability of powder or granules during the drug product process. Compressibility index test method is as follows: a certain amount of powder was added into a measuring cylinder and bulk volume was recorded. Then the powder was tapped to make it in the tightest state and the tapped volume was recorded. The bulk density (p0), tapped density (pf) were calculated and compressibility index was calculated according to c=(pf−p0)/pf. According to the criteria of flowability in USP General Charpters: <1174> Powder Flow, the flowability results are shown in Table 10.

[4] = Adhesiveness (material sticking to the punch); type: physicochemical; details: 30 mg, Φ8 mm round tooling, 10 KN, held 30 s
Experimental: 30 mg of Form CSII and 30 mg of prior art Form 1B were weighed and then added into the dies of Φ8 mm round tooling, compressed at 10 KN by ENERPAC manual tablet press and held for 30 s. The punch was weighed and amount of material sticking to the punch was calculated. The compression was repeated twice and the average amount of material sticking to the punch during the compression were calculated.

[5] = Kinetic solubility in FeSSIF; type: physicochemical; details: 37° C., 30 min, 10 mg in 1 mL
Experimental: When solubility test is used to predict the in vivo performance of a drug, it is critical to simulate in vivo conditions as closely as possible. For oral medication, Fed-State Simulated Intestinal Fluid (FeSSIF) can be used to simulate the condition in vivo and predict the effects of feeding, thus solubility in such mediums is closer to that in vivo.
10 mg of Form CSII and 10 mg of prior art Form 1B were suspended into 1 mL of FeSSIF to get suspensions. After equilibrated at 37° C. for 30 min, the suspensions were filtrated to get saturated solutions. The concentrations (mg/mL) of Compound I of the saturated solutions were measured by HPLC.

[6] = Particle size distribution (laser particle size analyzer, wet mode); type: physicochemical
Experimental: The particle size distribution data in the present disclosure were acquired by an Mastersizer 3000 laser particle size analyzer of Malvern. The test was carried out in wet mode, using a Hydro MV dispersion device, and the dispersant was Isopar G. The parameters are as follows:
An appropriate amount of Form CSII of the present disclosure and prior art Form 1B was tested particle size distribution. The average particle diameter calculated by volume, the diameter at which 10% mass is comprised of smaller particles (D10), the diameter at which 50% mass is comprised of smaller particles (D50) and the diameter at which 90% mass is comprised of smaller particles (D90) were obtained in particle size distribution test.

[7] = low solubility and low permeability; cited from earlier work
[8] = Storage stability of Form CSII drug substance (XRPD, HPLC); type: physicochemical
Experimental: An appropriate amount of Form CSII of the present disclosure were stored under different sealed conditions of 25° C./60% RH and 40° C./75% RH with desiccant and antioxidant. Chemical purity and crystalline form were checked by HPLC and XRPD, respectively. […] Form CSII has good stability under both long-term and accelerated conditions.

[9] = Morphology by microscopy; type: physicochemical; details: magnification of 200 times
Source text: An appropriate amount of Form CSII of the present disclosure was placed on a glass slide and dispersed with vacuum pump oil. It was covered with a cover glass slide and shoot at a magnification of 200 times.

[10] = Stability upon mechanical force (tableting pressure, grinding); type: physicochemical
[11] = Crystal form stability in formulation process; type: physicochemical; details: formulation of Table 15, process of Table 16
Source text: Form CSII of the present disclosure was made into capsules using the formulation in Table 15 and the preparation process in Table 16. The XRPD patterns were collected before and after the formulation process.

[12] = 25° C./60% RH, sealed with desiccant and antioxidant, 6 months
[13] = 40° C./75% RH, sealed with desiccant and antioxidant, 6 months

Row | Compound | Humidity stability / form conversion [1] | Tensile strength [2] [MPa] | Hardness [2] [kgf] | Bulk density [3] [g/mL] | Tapped density [3] [g/mL] | Compressibility index [3] | Flowability [3] | Average amount of material sticking to the punch [4] [mg] | Solubility [5] [µg/mL] | D10 [6] [μm] | D50 [6] [μm] | D90 [6] [μm] | MV (average particle diameter calculated by volume) [6] [μm] | other results
1 | CCNCCc1ccc(CN(CC)c2cc(OC)ccc2[C@@H]2CCc3cc(O)ccc3C2)cc1 [Form 2] | transitions to Form 3 when humidity is below 40% RH |  |  |  |  |  |  |  |  |  |  |  |  | 
2 | CCNCCc1ccc(CN(CC)c2cc(OC)ccc2[C@@H]2CCc3cc(O)ccc3C2)cc1 [Prior art Form 1B, reference compound] | can maintain stability at humidity above 90% RH | 0.44 | 9.3 | 0.198 | 0.248 | 20 | Fair | 0.59 | 1170 (≈ 2.55 mM) | 1.64 | 286 | 839 | 350 | Particle morphology ([1]; Table 17 of WO2020010216A1): very small flaky particle mainly composed of aggregates
3 | CCNCCc1ccc(CN(CC)c2cc(OC)ccc2[C@@H]2CCc3cc(O)ccc3C2)cc1 [Form 1] | transitions to Form 3 under high humidity conditions |  |  |  |  |  |  |  |  |  |  |  |  | 
4 | CCNCCc1ccc(CN(CC)c2cc(OC)ccc2[C@@H]2CCc3cc(O)ccc3C2)cc1 [Elacestrant, (R)-6-{2-{ethyl [4-(2-ethylaminoethyl)benzyl]amino}-4-methoxyphenyl}-5,6,7,8-tetrahydronaphthalen-2-ol] |  |  |  |  |  |  |  |  |  |  |  |  |  | BCS class [7]: BCS class IV
5 | CCNCCc1ccc(CN(CC)c2cc(OC)ccc2[C@@H]2CCc3cc(O)ccc3C2)cc1 [Form CSII, (R)-6-{2-{ethyl [4-(2-ethylaminoethyl)benzyl]amino}-4-methoxyphenyl}-5,6,7,8-tetrahydronaphthalen-2-ol] |  | 0.97 | 18.4 | 0.237 | 0.266 | 11 | Good | 0.21 | 2590 (≈ 5.65 mM) | 2.11 | 14.9 | 28.3 | 15.8 | Time kept stable (crystalline state unchanged) ([8]; 25° C./60% RH): at least 6 months; Form (XRPD) [8, 12]: Form CSII; Purity [8, 12]: 99.60%; Time kept stable (crystalline state unchanged) ([8]; 40° C./75% RH): at least 6 months; Form (XRPD) [8, 13]: Form CSII; Purity [8, 13]: 99.58%; Form (XRPD) ([8]; Initial): Form CSII; Purity ([8]; Initial): 99.59%; Agglomeration (morphology) [9]: no agglomeration; Maximum particle size [9]: 30-40 μm; Solid form after tableting ([10]; Pressure 5 kN): Form CSII; Solid form after tableting ([10]; Pressure 10 kN): Form CSII; Solid form after tableting ([10]; Pressure 15 kN): Form CSII; Crystalline form after grinding ([10]; grinding (ball milling, FIG. 5)): doesn't change; Crystalline form before and after formulation process [11]: remains stable
6 | CCNCCc1ccc(CN(CC)c2cc(OC)ccc2[C@@H]2CCc3cc(O)ccc3C2)cc1 [Form 3] | transitions to Form 2 when humidity is above 40% RH |  |  |  |  |  |  |  |  |  |  |  |  | 

— US20250282711A1, “CRYSTALLINE FORM OF ELACESTRANT AND PREPARATION METHOD AND USE THEREOF” (CRYSTAL PHARMACEUTICAL (SUZHOU) CO., LTD., priority 2022, published 2025)
